Assay results: patent publication US9221761B2, “Method for inhibition of deubiquitinating activity” (Vivolux AB, priority 2011, dated 2015)

Legend:
HCT116 = assay: FMCA (Fluorometric Microculture Cytotoxicity Assay) cytotoxicity; assay type: cell-based; conditions: for cytotoxicity relative to structurally corresponding compounds with a 6-membered ring moiety: HCT-116, 72 hours, survival index, FIGS. 3b, 3d, 3f; for IC50: 72 hours of continuous compound exposure
Experimental: FIGS. 1a to 1o are diagrams illustrating induction of dose-dependent cytotoxicity after 72 hours of continuous compound exposure to the reporter cell line HCT-116 by embodiments of the compound of the invention, as measured FMCA (Fluorometric Microculture Cytotoxicity Assay), as well as absence of such induction by structurally related compounds not comprised by the invention. Treated cells were compared to untreated controls (survival index);
Determination of cell apoptosis and viability. For determination of apoptosis parental HCT-116 p53+/+ cells are treated with the increasing doses of the compound of the invention for 24 h. […] HCT-116 cells are seeded in 96-well microtiter plates at 10,000 cells per well and incubated overnight. Cells are treated with indicated drug for 24 h. At the end of the incubation period, NP40 is added to the tissue culture medium to 0.1% and 25 μl of the content of each well was assayed using the M30-Apoptosense® ELISA as previously described (31). Cell viability is determined by measuring acid phosphatase activity or using the FMCA method (32). For the acid phosphatase activity cells are seeded at 5000 cells per well in 96-well culture plates and incubated for 12 h at 37° C. Compounds are added to the cells in growth media and incubated for 72 h at 37° C. Cells are washed with 200 μl warm PBS. 100 μl of para-nitrophenyl phosphate (pNPP, 2 mg/ml) in Na acetate buffer pH 5 (NaAc 0.1 M, 0.1% Triton-X-100) is added per well. Cells are incubated for 2 h after which reaction was stopped by addition of 1N NaOH. Absorbance is measured at 405 nm. The dose-dependent cytotoxicity of a number of embodiments of the compound of the invention is illustrated in FIGS. 1a-1o.
For the FMCA assay cells are seeded in the drug-prepared 384-well plates using the pipetting robot Precision 2000 (Bio-Tek Instruments Inc., Winooski, Vt.). The plates are incubated for 72 h and then transferred to an integrated HTS SAIGAN Core System consisting of an ORCA robot (Beckman Coulter) with CO2 incubator (Cytomat 2C, Kendro, Sollentuna, Sweden), dispenser module (Multidrop 384, Titertek, Huntsville, Ala.), washer module (ELx 405, Bio-Tek Instruments Inc), delidding station, plate hotels, barcode reader (Beckman Coulter), liquid handler (Biomek 2000, Beckman Coulter) and a multipurpose reader (FLUOstar Optima, BMG Labtech GmbH, Offenburg, Germany) for automated FMCA. Survival index (SI) is defined as the fluorescence of test wells in percentage of controls with blank values subtracted.
FIGS. 3b, 3d, 3f are diagrams illustrating the cytotoxicity of compounds of the invention nos. 1546, 1547, and 1570 with a 7-membered ring moiety in comparison to structurally corresponding compounds not comprised by the invention with a 6-membered ring moiety. Their induction of dose-dependent cytotoxicity was determined after 72 hours of continuous compound exposure to the reporter cell line HCT-116. Treated cells were compared with untreated controls. Cytotoxicity is visualized as survival index (SI) over the range of about 90% SI to about 0% SI in dependence on compound concentration.

[1] = tested on: MelJuSo Ub-YFP reporter cell line; assay: Proteasome inhibition in reporter cell line, YFP accumulation in IncuCyte-FLR; assay type: cell-based; conditions: YFP accumulation measured for 48 hours; for MeJuSo-UB, lowest effective conc.: Table 2; for MeJuSo-UB, IncuCyte lowest effective conc.: Table 1
From the text: Cell culture. MCF7 cells are maintained in MEM/10% fetal calf serum. HCT-116 p53+/+, p53−/−, Bcl-2+/+, PUMA−/− and BAX−/− cells are maintained in McCoy's 5A modified medium/10% fetal calf serum. The HCT-116 p53+/+, p53−/−, PUMA−/− and BAX−/− are generated as described (25). The HCT-116 Bcl-2+/+ cell line was generated by transfecting parental HCT-116 p53+/+ cells with pCEP4 Bcl-2 (Addgene plasmid 16461) (26) and isolating high expression clones. FaDu and LLC3 cells are maintained in DMEM high glucose medium supplemented with 10% fetal calf serum, Na pyruvate, Hepes and non-essential amino acids. 4T1.12B carcinoma cells are maintained in RPMI medium supplemented with 10% fetal calf serum. The proteasome reporter cell line MelJuSo Ub-YFP was generated as described (12). Cells were maintained in Dulbecco's Modified Eagle's Medium/10% fetal calf serum. […] The retinal epithelial cell line was generated as described (28). All cells are maintained at 37° C. in 5% CO2.
The compound of the invention induces proteasome inhibition. The reporter cell line MelJuSo Ub-YFP, which is engineered to accumulate yellow fluorescent protein (YFP) upon proteasome inhibition (12), was used for compound evaluation. The accumulation of YFP was measured for 48 hours in an IncuCyte-FLR system (Essen Bioscience, Essen, UK), which is an automated fluorescence microscope. Numbers of positive cells per field were used as a measure of proteasome inhibition.

[2] = Dissolution in 25% by weight Kolliphor HS15; assay type: physicochemical; conditions: for amount of compound contained in prepared solution (10 ml): 18 mg starting weight, 25% w/w Kolliphor HS15, ultrasound about 50° C., non-dissolved residue deducted
Experimental: Pharmaceutical composition E (solution). For intraperitoneal administration a 25% by weight Kolliphor HS15 stock solution was prepared by melting an entire container of Kolliphor HS15 (Sigma 42966) by warming to 60° C. and diluting with deionized water to 25% w/w. To compound #1570 (18.0 mg) in a 10 mL sample tube was added 10.0 mL of the stock solution and the tube vortexed, treated with ultrasound at about 50° C. for about 2 h, and occasionally heated to about 83° C. […] By the same procedure solutions of compounds #1546 and #1571 were prepared; these compounds were however not fully dissolved. The non-dissolved residue was weighed, and the weight deducted from the starting weight of compound (18 mg).

## C=CC(=O)N1CCC(=Cc2ccc([N+](=O)[O-])cc2)C(=O)C(=Cc2ccc([N+](=O)[O-])cc2)C1 [Compound 1546]
HCT116
  cytotoxicity relative to structurally corresponding compounds with a 6-membered ring moiety: more cytotoxic
HCT116; Table 2
  IC50: 1200 nM
[1]
  MeJuSo-UB, lowest effective conc.: 2 µM
[2]
  amount of compound contained in prepared solution (10 ml): 8.5 mg

## C=CC(=O)N1CCC(=Cc2ccc(F)c([N+](=O)[O-])c2)C(=O)C(=Cc2ccc(F)c([N+](=O)[O-])c2)C1 [Compound 1570]
HCT116
  cytotoxicity relative to structurally corresponding compounds with a 6-membered ring moiety: more cytotoxic
HCT116; Table 2
  IC50: 500 nM
[1]
  MeJuSo-UB, lowest effective conc.: 0.25 µM
[2]; 25% w/w Kolliphor HS15, ultrasound about 50° C. about 2 h
  dissolution of 18.0 mg in 10.0 mL stock solution: clear solution

## N#Cc1ccc(C=C2CCNCC(=Cc3ccc(C#N)cc3)C2=O)cc1 [Compound 1625]
HCT116; Table 1
  IC50: 900 nM
[1]
  MeJuSo-UB, IncuCyte lowest effective conc.: 0.5 µM

## O=C1/C(=C/c2ccc(Cl)cc2)CCNC/C1=C\c1ccc([N+](=O)[O-])cc1 [Compound 1583, (3E,5E)-5-[(4-chlorophenyl)methylidene]-3-[(4-nitrophenyl)methylidene]azepan-4-one]
HCT116; Homo sapiens, HCT-116, Table 1
  IC50: 3300 nM
[1]
  MeJuSo-UB, IncuCyte lowest effective conc.: 2 µM

## CC(=O)OCCC(=O)N1CCC(=Cc2cc(F)c(F)c(F)c2)C(=O)C(=Cc2cc(F)c(F)c(F)c2)C1 [Compound 1664]
HCT116; Table 2
  IC50: 2800 nM
[1]
  MeJuSo-UB, lowest effective conc.: 4 µM

## CCOC(=O)CCC(=O)N1CC/C(=C\c2ccc([N+](=O)[O-])cc2)C(=O)/C(=C/c2ccc([N+](=O)[O-])cc2)C1.O=C(O)C(F)(F)F [Compound 1507, (3E,5E)-1-(4-ethoxy-4-oxobutanoyl)-3,5-bis[(4-nitrophenyl)methylidene]-4-oxoazepan-1-ium trifluoroacetate]
HCT116; Homo sapiens, HCT-116, Table 2
  IC50: 4400 nM
[1]
  MeJuSo-UB, lowest effective conc.: 8 µM

## CN1CCC(=Cc2ccc([N+](=O)[O-])cc2)C(=O)C(=Cc2ccc(Cl)cc2)C1 [Compound 1594]
HCT116; Table 1
  IC50: 2600 nM
[1]
  MeJuSo-UB, IncuCyte lowest effective conc.: 1 µM

## CN1CC/C(=C\c2ccc([N+](=O)[O-])cc2)C(=O)/C(=C/c2ccc([N+](=O)[O-])cc2)C1 [Compound 1563, (3E,5E)-1-methyl-3,5-bis[(4-nitrophenyl)methylidene]azepan-4-one]
HCT116; Homo sapiens, HCT-116, Table 1
  IC50: 1500 nM
[1]
  MeJuSo-UB, IncuCyte lowest effective conc.: 0.5 µM

## COc1ccc(C=C2CNCCC(=Cc3ccc(F)cc3)C2=O)cc1 [Compound 1576]
HCT116; Table 1
  IC50: 1600 nM
[1]
  MeJuSo-UB, IncuCyte lowest effective conc.: 8 µM

## O=C1C(=Cc2ccc(F)c(C(F)(F)F)c2)CCNCC1=Cc1ccc(F)c(C(F)(F)F)c1 [Compound 1622]
HCT116; Table 1
  IC50: 800 nM
[1]
  MeJuSo-UB, IncuCyte lowest effective conc.: 0.5 µM

## CC(=O)N1CCC(=Cc2ccc(F)c([N+](=O)[O-])c2)C(=O)C(=Cc2ccc(F)c([N+](=O)[O-])c2)C1 [Compound 1571]
HCT116; Table 2
  IC50: 900 nM
[1]
  MeJuSo-UB, lowest effective conc.: 0.25 µM
[2]
  amount of compound contained in prepared solution (10 ml): 11.0 mg

## CC(=O)OCCC(=O)N1CCC(=Cc2ccc(Cl)c(F)c2)C(=O)C(=Cc2ccc(Cl)c(F)c2)C1 [Compound 1660]
HCT116; Table 2
  IC50: 2400 nM
[1]
  MeJuSo-UB, lowest effective conc.: 2 µM

## O=C1C(=Cc2cc(F)cc(C(F)(F)F)c2)CCNCC1=Cc1cc(F)cc(C(F)(F)F)c1 [Compound 1611]
HCT116; Table 1
  IC50: 1100 nM
[1]
  MeJuSo-UB, IncuCyte lowest effective conc.: 0.5 µM

## CN1CCC(=Cc2ccc([N+](=O)[O-])cc2)C(=O)C(=Cc2ccc([N+](=O)[O-])cc2)C1 [Compound 1614]
HCT116; Table 1
  IC50: 7400 nM
[1]
  MeJuSo-UB, IncuCyte lowest effective conc.: 8 µM

## CN1CCC(=Cc2ccc(Cl)c(C(F)(F)F)c2)C(=O)C(=Cc2ccc(Cl)c(C(F)(F)F)c2)C1 [Compound 1615]
HCT116; Table 1
  IC50: 900 nM
[1]
  MeJuSo-UB, IncuCyte lowest effective conc.: 0.5 µM

## CC(=O)N1CCC(=Cc2ccc([N+](=O)[O-])cc2)C(=O)C(=Cc2ccc(Cl)cc2)C1 [Compound 1597]
HCT116; Table 2
  IC50: 1300 nM
[1]
  MeJuSo-UB, lowest effective conc.: 1 µM

## O=C1C(=Cc2ccc(Cl)cc2)CCNCC1=Cc1ccc([N+](=O)[O-])cc1 [Compound 1584]
HCT116; Table 1
  IC50: 1800 nM
[1]
  MeJuSo-UB, IncuCyte lowest effective conc.: 2 µM
